The text below walks through data of PMC10569036.

The nature of data set [1]: shake flask on a mixture of 185; loss from the water phase only; LC-QTOF peak areas. Particulars: room.
Data set [2] in a line: shake flask on a mixture of 185; loss from the water phase only; LC-Orbitrap peak areas. Particulars: room.

SMILES strings stand for the structures.

On to `CCOc1ccc2[nH]cc(C(=O)NCc3ccccc3)c(=O)c2n1`, for which, in data set [1], the “log partition 1-octanol / HPLC water, unbuffered, traces of methanol / DMSO” value (“log partition 1-octanol / HPLC water” below) was determined as 2.233 log10; the “log partition butyl acetate / HPLC water, unbuffered, traces of methanol / DMSO” value (from here on “log partition butyl acetate / HPLC water”) was 1.386 log10; the “log partition chloroform / HPLC water, unbuffered, traces of methanol / DMSO” value (shortened to “log partition chloroform / HPLC water”) was determined as 2.411 log10; the “log partition cyclohexane / HPLC water, unbuffered, traces of methanol / DMSO” value (“log partition cyclohexane / HPLC water” for short) is listed as -1.713 log10. In data set [1], the “log partition dichloromethane / HPLC water, unbuffered, traces of methanol / DMSO” value stood at 1.249 log10; the “log partition n-hexane / HPLC water, unbuffered, traces of methanol / DMSO” value (“log partition n-hexane / HPLC water” for short) is reported as -1.238 log10; the “log partition n-octane / HPLC water, unbuffered, traces of methanol / DMSO” value (from here on “log partition n-octane / HPLC water”) was -1.123 log10; the “log partition n-undecane / HPLC water, unbuffered, traces of methanol / DMSO” value (from here on “log partition n-undecane / HPLC water”) is reported as -1.345 log10. Besides, in data set [1], the “log partition oleylalcohol / HPLC water, unbuffered, traces of methanol / DMSO” value (“log partition oleylalcohol / HPLC water” below) is reported as 2.032 log10 and the “log partition toluene / HPLC water, unbuffered, traces of methanol / DMSO” value (“log partition toluene / HPLC water” for short) is recorded as -0.4984 log10. In data set [2], the “log partition 1-octanol / HPLC water” value was found to be 3.526 log10; the “log partition butyl acetate / HPLC water” value amounted to 2.502 log10; the “log partition chloroform / HPLC water” value came to 1.196 log10; the “log partition cyclohexane / HPLC water” value is reported as -1.221 log10. Further, in data set [2], the “log partition dichloromethane / HPLC water, unbuffered, traces of methanol / DMSO” value is recorded as 1.153 log10; the “log partition n-hexane / HPLC water” value is -1.633 log10; the “log partition n-octane / HPLC water” value is given as -1.139 log10; the “log partition n-undecane / HPLC water” value is listed as -1.372 log10. In data set [2], the “log partition oleylalcohol / HPLC water” value is 2.478 log10 and the “log partition toluene / HPLC water” value is -0.2525 log10.
For `O=C(Nc1ccccc1-c1ccc(Cl)cc1)c1cccnc1Cl`, in data set [1], the “log partition 1-octanol / HPLC water” value is listed as 2.544 log10; the “log partition butyl acetate / HPLC water” value turned out to be 2.85 log10; the “log partition chloroform / HPLC water” value turned out to be 2.789 log10; the “log partition cyclohexane / HPLC water” value was 1.857 log10. In data set [1], the “log partition dichloromethane / HPLC water, unbuffered, traces of methanol / DMSO” value came to 2.321 log10; the “log partition n-hexane / HPLC water” value was found to be 1.024 log10; the “log partition n-octane / HPLC water” value is given as 1.335 log10; the “log partition n-undecane / HPLC water” value was 1.129 log10. In data set [1], the “log partition oleylalcohol / HPLC water” value is reported as 1.78 log10 and the “log partition toluene / HPLC water” value was 2.524 log10. Besides, in data set [2], the “log partition 1-octanol / HPLC water” value worked out at 3.752 log10; the “log partition butyl acetate / HPLC water” value came out at 4.674 log10; the “log partition chloroform / HPLC water” value is given as 1.201 log10; the “log partition cyclohexane / HPLC water” value amounted to 2.491 log10. In data set [2], the “log partition dichloromethane / HPLC water, unbuffered, traces of methanol / DMSO” value turned out to be 2.846 log10; the “log partition n-hexane / HPLC water” value is given as 1.664 log10; the “log partition n-octane / HPLC water” value came out at 1.841 log10; the “log partition n-undecane / HPLC water” value was found to be 2.234 log10. Besides, in data set [2], the “log partition oleylalcohol / HPLC water” value worked out at 3.336 log10 and the “log partition toluene / HPLC water” value came out at 3.533 log10.
`C#CC(C)(C)NC(=O)c1cc(Cl)cc(Cl)c1`: in data set [1], the “log partition 1-octanol / HPLC water” value is listed as 2.331 log10; the “log partition butyl acetate / HPLC water” value is listed as 2.368 log10; the “log partition chloroform / HPLC water” value was 2.908 log10; the “log partition dichloromethane / HPLC water, unbuffered, traces of methanol / DMSO” value came out at 2.85 log10. Moreover, in data set [1], the “log partition oleylalcohol / HPLC water” value is listed as 2.008 log10 and the “log partition toluene / HPLC water” value is recorded as 2.121 log10. In addition, in data set [2], the “log partition 1-octanol / HPLC water” value turned out to be 2.462 log10; the “log partition butyl acetate / HPLC water” value is given as 2.969 log10; the “log partition chloroform / HPLC water” value is listed as 1.414 log10; the “log partition dichloromethane / HPLC water, unbuffered, traces of methanol / DMSO” value was 3 log10. In data set [2], the “log partition oleylalcohol / HPLC water” value came out at 2.211 log10 and the “log partition toluene / HPLC water” value stood at 2.779 log10.
Consider `CCc1ccc(C(=O)NN(C(=O)c2cc(C)cc(C)c2)C(C)(C)C)cc1`, for which, in data set [1], the “log partition 1-octanol / HPLC water” value is on record as 1.362 log10; the “log partition butyl acetate / HPLC water” value came out at 1.733 log10; the “log partition chloroform / HPLC water” value is on record as 1.756 log10; the “log partition cyclohexane / HPLC water” value worked out at 1.284 log10. Also, in data set [1], the “log partition dichloromethane / HPLC water, unbuffered, traces of methanol / DMSO” value worked out at 1.824 log10; the “log partition n-hexane / HPLC water” value was found to be 1.035 log10; the “log partition n-octane / HPLC water” value worked out at 0.9128 log10; the “log partition n-undecane / HPLC water” value was 0.8541 log10. For the same compound, in data set [1], the “log partition oleylalcohol / HPLC water” value is 1.649 log10 and the “log partition toluene / HPLC water” value was determined as 1.989 log10. Further, in data set [2], the “log partition 1-octanol / HPLC water” value was determined as 1.544 log10; the “log partition butyl acetate / HPLC water” value stood at 1.55 log10; the “log partition chloroform / HPLC water” value came to 1.889 log10; the “log partition cyclohexane / HPLC water” value came out at 2.061 log10. In addition, in data set [2], the “log partition dichloromethane / HPLC water, unbuffered, traces of methanol / DMSO” value was 1.493 log10; the “log partition n-hexane / HPLC water” value is given as 1.296 log10; the “log partition n-octane / HPLC water” value turned out to be 1.432 log10; the “log partition n-undecane / HPLC water” value was found to be 1.36 log10. In data set [2], the “log partition oleylalcohol / HPLC water” value amounted to 0.7925 log10 and the “log partition toluene / HPLC water” value came out at 1.17 log10.
With `CC(C)N1C(=O)c2ccccc2NS1(=O)=O`, in data set [1], the “log partition 1-octanol / HPLC water” value is -1.303 log10; the “log partition butyl acetate / HPLC water” value was -1.026 log10; the “log partition chloroform / HPLC water” value is recorded as 0.1169 log10; the “log partition cyclohexane / HPLC water” value was -1.509 log10. For the same compound, in data set [1], the “log partition dichloromethane / HPLC water, unbuffered, traces of methanol / DMSO” value is 0.3228 log10; the “log partition n-hexane / HPLC water” value is given as -1.425 log10; the “log partition n-octane / HPLC water” value is -1.602 log10; the “log partition n-undecane / HPLC water” value is -1.756 log10. In data set [1], the “log partition oleylalcohol / HPLC water” value is reported as -1.143 log10 and the “log partition toluene / HPLC water” value is given as -0.5708 log10. For the same compound, in data set [2], the “log partition 1-octanol / HPLC water” value is recorded as 0.1891 log10; the “log partition butyl acetate / HPLC water” value is reported as -1.323 log10; the “log partition chloroform / HPLC water” value worked out at 1.041 log10; the “log partition cyclohexane / HPLC water” value is -0.4548 log10. For the same compound, in data set [2], the “log partition dichloromethane / HPLC water, unbuffered, traces of methanol / DMSO” value was determined as 0.004436 log10; the “log partition n-hexane / HPLC water” value is given as -0.9186 log10; the “log partition n-octane / HPLC water” value is reported as -0.654 log10; the “log partition n-undecane / HPLC water” value is -1.481 log10. Moreover, in data set [2], the “log partition oleylalcohol / HPLC water” value was -0.1011 log10 and the “log partition toluene / HPLC water” value is -0.9524 log10.
As to `CCc1nn(C)c(C(=O)NCc2ccc(C(C)(C)C)cc2)c1Cl`, in data set [1], the “log partition 1-octanol / HPLC water” value is 0.9057 log10; the “log partition butyl acetate / HPLC water” value amounted to 1.589 log10; the “log partition chloroform / HPLC water” value worked out at 1.982 log10; the “log partition cyclohexane / HPLC water” value is given as 2.337 log10. In data set [1], the “log partition dichloromethane / HPLC water, unbuffered, traces of methanol / DMSO” value was determined as 2.036 log10; the “log partition n-hexane / HPLC water” value turned out to be 2.449 log10; the “log partition n-octane / HPLC water” value stood at 2.089 log10; the “log partition n-undecane / HPLC water” value was determined as 1.893 log10. Also, in data set [1], the “log partition oleylalcohol / HPLC water” value was found to be 0.96 log10 and the “log partition toluene / HPLC water” value came to 1.518 log10. Further, in data set [2], the “log partition 1-octanol / HPLC water” value stood at 1.459 log10; the “log partition butyl acetate / HPLC water” value is listed as 1.634 log10; the “log partition chloroform / HPLC water” value came to 0.2173 log10; the “log partition cyclohexane / HPLC water” value was 0.942 log10. In data set [2], the “log partition dichloromethane / HPLC water, unbuffered, traces of methanol / DMSO” value is reported as 3.08 log10; the “log partition n-hexane / HPLC water” value stood at 0.5625 log10; the “log partition n-octane / HPLC water” value was determined as 1.395 log10; the “log partition n-undecane / HPLC water” value is reported as 0.9075 log10. Also, in data set [2], the “log partition oleylalcohol / HPLC water” value worked out at 1.51 log10 and the “log partition toluene / HPLC water” value amounted to 1.132 log10.
As for `NC(=O)Nc1ccc(Cl)cc1`, in data set [1], the “log partition 1-octanol / HPLC water” value is recorded as 1.214 log10; the “log partition butyl acetate / HPLC water” value came to 0.7995 log10; the “log partition chloroform / HPLC water” value was -0.1363 log10; the “log partition dichloromethane / HPLC water, unbuffered, traces of methanol / DMSO” value is given as -0.2421 log10. In data set [1], the “log partition oleylalcohol / HPLC water” value stood at 1.051 log10 and the “log partition toluene / HPLC water” value is -0.9053 log10. In data set [2], the “log partition 1-octanol / HPLC water” value is on record as 0.591 log10; the “log partition butyl acetate / HPLC water” value is 0.6709 log10; the “log partition chloroform / HPLC water” value is on record as -0.4936 log10; the “log partition dichloromethane / HPLC water, unbuffered, traces of methanol / DMSO” value was -0.3897 log10. In data set [2], the “log partition oleylalcohol / HPLC water” value was 0.6552 log10 and the “log partition toluene / HPLC water” value is recorded as -1.194 log10.
